The record followed here is patent US20240285660A1, “COMPOSITION FOR WOUND RELIEF AND INHIBITING A PHD PROTEIN AND METHODS OF TREATMENT” (Curapep LLC, priority 2021, published 2024).

Structures are written as SMILES. Values joined by “and” are separate entries in the source; they are usually repeats but may differ in a detail not shown here. Identical values can stand only once.

This experiment deals with HIF1-a protein in L929 cells. Briefly: In vitro HIF stabilization (HIF1-a ELISA, normalized to DNA content). In kind it is cell-based. Conditions: for level of HIF-1a compared to the negative control cells: alone, 0.01, 0.1, 1, 10 and 100 micromolar, L929 cells.

Take `O=c1cc(-c2ccccc2)oc2ccccc12` [Flavone, 2-phenylchromen-4-one]: the “level of HIF-1a compared to the negative control cells” value is “either a decrease of HIF-1a or the same level of HIF-1a”. Consider `[Cl-].[Cl-].[Co+2]` [CoCl2], for which the “HIF content increase (normalized to the DNA content) compared to the negative control” value is 2.21 fold and 2.16 fold. In the case of `O=c1c(-c2ccc(O)cc2)coc2c([C@@H]3O[C@H](CO)[C@@H](O)[C@H](O)[C@H]3O)c(O)ccc12` [Puerarin, 7-hydroxy-3-(4-hydroxyphenyl)-8-[(2S,3R,4R,5S,6R)-3,4,5-trihydroxy-6-(hydroxymethyl)oxan-2-yl]chromen-4-one], the “level of HIF-1a compared to the negative control cells” value was “either a decrease of HIF-1a or the same level of HIF-1a”.
